# Data taken from publication PMC12083017, “Enhanced oral bioavailability of two Cistanche polysaccharides in acteoside: an in-depth analysis of intestinal flora, short-chain fatty acids, and pharmacokinetic regulation” (Frontiers in Nutrition, 2025).
# Like-named read-outs stand apart in the source and are kept apart here.
# Experiments:
# [1] = Pharmacokinetics of acteoside and its metabolites in rat plasma after oral acteoside (UPLC-QqQ-MS); format: in vivo, male Sprague–Dawley rats; conditions: for AUC(0-inf) / AUC(0-t) / Tmax / half-life / Cmax / MRT last / MRT inf: male, Sprague-Dawley, rat, plasma, po, 100 mg/kg, metabolite in rat plasma following oral acteoside 100 mg/kg, n = 6; for Cmax: read-out: Cmax; for MRT last: read-out: MRT(0-t); for MRT inf: read-out: MRT(0-∞)
# Text: After a week of acclimatization, rats were split into three groups at random: the wine-processed Cistanche polysaccharide group (WCP group), the unprocessed Cistanche polysaccharide group (UCP group), and the blank control group (Control group). Six rats each group were raised in the same cage for breeding. Prior to the experiment, provide water and regular laboratory meals to the rats at will and fast for one night before the experiment. In order to ensure the continuous intake of Cistanche polysaccharides, it was calculated according to the requirements of the Chinese Pharmacopoeia ([16]) based on the daily dosage of Cistanche for adults, the polysaccharide yield of Cistanche polysaccharides and the equivalent conversion formula of the drug administration between humans and rats ([17]). An appropriate amount of raw Cistanche polysaccharide and Cistanche wine polysaccharide were weighed, dissolved in pure water, and prepared with 15.06 g·kg^-1 administration solution for continuous administration for 21 days. After fasting overnight, on day 22, two fresh fecal samples were collected from each rat, put straight into a sterile tube from the anus, avoiding contact with skin or urine, and stored in a -80°C freezer immediately after freezing with liquid nitrogen for subsequent analysis. For the pharmacokinetics, in a 1.5 mL heparinized centrifuge tube, 0.3 mL of continuous blood collected from the orbital vein was taken from 0 min, 5 min, 10 min, 30 min, 1.0 […], and 36 h following oral administration of acteoside (100 mg/kg) in the three groups. Using a cryo-centrifuge, plasma samples were produced by centrifuging at 800 g for ten minutes at 4°C. After that, plasma samples were gathered and kept for later examination at -80°C. […] Following this,20 μL of genistein (1 μg/mL IS) solution and 600 μL of cold acetonitrile were then included and centrifuged for 5 min, the […] proteins were separated by vortexing for 5 min, and then they were spun down for 15 min at 4°C at 14,000 rpm. The supernatant was gathered and dried at 40°C with a light nitrogen stream. The dried remnant was then immersed in 100 μL of 25% aqueous acetonitrile fluid, and centrifugation was performed again for 10 min at 4°C at 14,000 rpm. Ultimately, the LC-MS/MS system was injected with 2 μL of the liquid for analysis. A 1.7 μm and 2.1 × 100 mm I.D. […] With a column temperature of 30°C, the flow rate was fixed at 0.3 mL/min. In the mass spectrometry analysis, negative ionization mode was performed with the following optimized parameters: capillary voltage, 3.0 kV; desolvation temperature, 400°C. […] Thus, multiple reaction monitoring (MRM) of the acteoside transitions at 623.37 → 161.02 m/z, caffeic acid transitions at 179.01 → 135.03 m/z, hydroxytyrosol transitions at 153.03 → 122.95 m/z, genistein transitions at 269.08 → 132.57 m/z was used for quantification. […] Data were processed using Masslynx workstation data acquisition and qualitative analysis software (4.1, Waters, USA). Using the DAS program (Chinese Pharmacological Society, Beijing, China), pharmacokinetic parameters were estimated.
# [2] = format: physicochemical; conditions: rat; for Short-term stability (RSD,%): 4 h; for Post-preparation stability (RSD,%): 24 h; for Long-term stability (RSD,%): 15 days
# Procedure: A 4°C freezer was then used to make and store the stock solution (1 mg/mL). Moreover, 50% methanol was used to dilute 1 μg/mL of the IS working solution. […] Before being analyzed, the entire set of QC samples were kept at −80°C. An examination of stability using QC samples at low, medium, and high doses. Short-term stability was measured by injecting samples after staying 4 h at room temperature (25°C). After preparation, the sample was kept at 4°C for 24 h, and the dosage was injected to ascertain the sample’s stability. To determine long-term stability, samples were frozen at −80°C for 15 days before being injected. By thawing the samples three times in a row at room temperature and a freezer at −20°C, the freeze–thaw stability was ascertained.
smiles,measurement,setting,value
"OCCc1ccc(O)c(O)c1 [Hydroxytyrosol, hydroxytyrosol]",AUC(0-inf),[1]; Control group,42.5 ± 4.24 ng·h/mL
same,AUC(0-t),[1]; Control group,40.6 ± 3.24 ng·h/mL
same,Tmax,[1]; Control group,0.25 h
same,half-life,[1]; Control group,0.813 ± 0.129 h
same,Cmax,[1]; Control group,30.3 ± 10.9 ng/mL
same,MRT last,[1]; Control group,1.2 ± 0.132 h
same,MRT inf,[1]; Control group,1.38 ± 0.145 h
same,AUC(0-inf),[1]; UCP group,60.5 ± 5.72 ng·h/mL
same,AUC(0-t),[1]; UCP group,56.5 ± 5.41 ng·h/mL
same,Tmax,[1]; UCP group,0.25 h
same,half-life,[1]; UCP group,0.908 ± 0.106 h
same,Cmax,[1]; UCP group,44.4 ± 14 ng/mL
same,MRT last,[1]; UCP group,1.19 ± 0.124 h
same,MRT inf,[1]; UCP group,1.46 ± 0.153 h
same,AUC(0-inf),[1]; WCP group,91.3 ± 6.92 ng·h/mL
same,AUC(0-t),[1]; WCP group,90.6 ± 6.73 ng·h/mL
same,Tmax,[1]; WCP group,0.25 h
same,half-life,[1]; WCP group,0.537 ± 0.116 h
same,Cmax,[1]; WCP group,71.4 ± 32 ng/mL
same,MRT last,[1]; WCP group,1.27 ± 0.139 h
same,MRT inf,[1]; WCP group,1.54 ± 0.168 h
same,"Cmax of metabolite, WCP group relative to UCP group","[1]; rats, following oral acteoside 100 mg/kg",1.61 times
same,"Freeze–thaw stability (RSD,%)",[2]; 25 ng/mL,7.04%
same,"Freeze–thaw stability (RSD,%)",[2]; 200 ng/mL,5.78%
same,"Freeze–thaw stability (RSD,%)",[2]; 1000 ng/mL,4.24%
same,"Short-term stability (RSD,%)",[2]; 25 ng/mL,5.34%
same,"Short-term stability (RSD,%)",[2]; 200 ng/mL,3.26%
same,"Short-term stability (RSD,%)",[2]; 1000 ng/mL,2.44%
same,"Post-preparation stability (RSD,%)",[2]; 25 ng/mL,6.32%
same,"Post-preparation stability (RSD,%)",[2]; 200 ng/mL,4.89%
same,"Post-preparation stability (RSD,%)",[2]; 1000 ng/mL,3.21%
same,"Long-term stability (RSD,%)",[2]; 25 ng/mL,7.78%
same,"Long-term stability (RSD,%)",[2]; 200 ng/mL,5.86%
same,"Long-term stability (RSD,%)",[2]; 1000 ng/mL,4.63%
